# Results from ChEMBL document CHEMBL1137901, “Biaryl guanidine inhibitors of in vitro HCV-IRES activity” (Bioorg Med Chem Lett, 2004).
# How the values were obtained:
# [1] = test system: Hepatitis C virus; assay: Selectivity was determined as the ratio of IC50 of non-IRES to that of IC50 of HCV-IRES; type: functional, Hepacivirus hominis
# [2] = test system: Hepatitis C virus; assay: In vitro inhibitory concentration against hepatitis C virus internal ribosome entry site (HCV-IRES) translation; type: functional, Hepacivirus hominis
# [3] = In vitro inhibitory concentration against non internal ribosome entry site translation; type: functional
smiles,measurement,setting,value
Cc1cc(C)nc(/N=C(\N)NCCc2ccccc2Cl)n1,Selectivity,[1],1.8
same,IC50,[2],16 µM
Cc1cc(C)nc(/N=C(\N)NCCc2ccc(C(C)(C)C)cc2)n1,IC50,[3],> 200 µM
same,IC50,[2],> 200 µM
Cc1cc(C)nc(N/C(N)=N/CCc2ccc(C(C)C)cc2)n1,Selectivity,[1],>1.9
same,IC50,[2],104 µM
COc1ccc(CCNC(=N)Nc2nc(C)cc(C)n2)cc1,Selectivity,[1],4.1
same,IC50,[2],25 µM
Cc1cc(C)nc(/N=C(\N)NCCc2ccc(Br)cc2)n1,Selectivity,[1],2.5
same,IC50,[2],50 µM
CCc1cc(CC)nc(/N=C(\N)NCCc2ccccc2)n1,Selectivity,[1],2.2
same,IC50,[2],13 µM
Cc1nc(/N=C(\N)NCCc2ccccc2)nc(C)c1C,Selectivity,[1],1.3
same,IC50,[2],4.2 µM
COc1cc(CC/N=C(\N)Nc2nc(C)cc(C)n2)cc(OC)c1,Selectivity,[1],>7.7
same,IC50,[2],26 µM
Cc1cc(C)nc(N/C(N)=N/C[C@@H](C)c2ccccc2)n1,Selectivity,[1],1.9
same,IC50,[2],21 µM
Cc1ccc(CC/N=C(\N)Nc2nc(C)cc(C)n2)c(C)c1,Selectivity,[1],3.3
same,IC50,[2],23 µM
COc1cc(OC)nc(/N=C(\N)NCCc2ccccc2)n1,Selectivity,[1],5
same,IC50,[2],35 µM
Cc1ccnc(/N=C(\N)NCCc2ccccc2)n1,Selectivity,[1],3.5
same,IC50,[2],46 µM
Cc1nc(/N=C(\N)NCCc2ccccc2)nc(C)c1Br,Selectivity,[1],2.2
same,IC50,[2],8.1 µM
Cc1cc(C)nc(/N=C(\N)NCCCc2ccccc2)n1,Selectivity,[1],1.3
same,IC50,[2],150 µM
Cc1cc(C)cc(NC(=N)NCCc2ccccc2)c1,IC50,[3],> 200 µM
same,IC50,[2],> 200 µM
Cc1ccc(CC/N=C(\N)Nc2nc(C)cc(C)n2)cc1,Selectivity,[1],3.8
same,IC50,[2],34 µM
Cc1cc(C)nc(/N=C(\N)NCc2cccs2)n1,Selectivity,[1],1.3
same,IC50,[2],38 µM
Cc1cccc(CC/N=C(\N)Nc2nc(C)cc(C)n2)c1,Selectivity,[1],2.8
same,IC50,[2],23 µM
COc1cc(OC)c(CC/N=C(\N)Nc2nc(C)cc(C)n2)c(OC)c1,Selectivity,[1],>2
same,IC50,[2],100 µM
Cc1cc(C)nc(/N=C(\N)NCc2cc3ccccc3o2)n1,Selectivity,[1],2.8
same,IC50,[2],25 µM
COc1ccccc1CC/N=C(\N)Nc1nc(C)cc(C)n1,Selectivity,[1],1.8
same,IC50,[2],13 µM
Cc1ccc(C)c(CC/N=C(\N)Nc2nc(C)cc(C)n2)c1,Selectivity,[1],5.7
same,IC50,[2],35 µM
Cc1cc(C)nc(/N=C(\N)NCCc2ccc(N)cc2)n1,Selectivity,[1],2.5
same,IC50,[2],61 µM
Cc1cc(C)nc(/N=C(\N)NCCc2ccncc2)n1,Selectivity,[1],>3.6
same,IC50,[2],55 µM
Cc1cc(C)nc(/N=C(\N)NCCc2ccccc2C)n1,Selectivity,[1],1.8
same,IC50,[2],15 µM
COc1ccc(OC)c(CC/N=C(\N)Nc2nc(C)cc(C)n2)c1,Selectivity,[1],>2.1
same,IC50,[2],94 µM
Cc1cc(C)nc(/N=C(\N)NCCc2ccc([N+](=O)[O-])cc2)n1,Selectivity,[1],1.5
same,IC50,[2],54 µM
Cc1cc(C)nc(/N=C(\N)NCCc2ccccc2)n1,Selectivity,[1],2.4
same,IC50,[2],9.6 µM
Cc1cc(C)nc(NC(=N)NCCc2ccccc2)c1,IC50,[3],> 200 µM
same,IC50,[2],> 200 µM
Cc1cc(C)nc(/N=C(\N)NCCc2ccc(Cl)cc2)n1,Selectivity,[1],2.3
same,IC50,[2],24 µM
Cc1cc(C)nc(/N=C(\N)NCc2ccco2)n1,Selectivity,[1],>2
same,IC50,[2],97 µM
Cc1nc(/N=C(\N)NCCc2ccccc2)nc(C)c1OCCCN(C)C,Selectivity,[1],2
same,IC50,[2],2.1 µM
Cc1cc(C)nc(/N=C(\N)NCCc2ccc(C(=O)O)cc2)n1,IC50,[3],> 200 µM
same,IC50,[2],> 200 µM
Cc1cc(C)nc(/N=C(\N)NCC(c2ccccc2)c2ccccc2)n1,Selectivity,[1],>2.7
same,IC50,[2],75 µM
Cc1cc(C)nc(/N=C(\N)NCc2ccccc2)n1,Selectivity,[1],2.6
same,IC50,[2],7.6 µM
Cc1cc(C)nc(/N=C(\N)NCCc2ccc(C(F)(F)F)cc2)n1,Selectivity,[1],2.2
same,IC50,[2],82 µM
CCOc1ccc(CC/N=C(\N)Nc2nc(C)cc(C)n2)cc1,Selectivity,[1],>2.4
same,IC50,[2],82 µM
Cc1nc(/N=C(\N)NCCc2ccccc2)nc(C)c1O,Selectivity,[1],3.6
same,IC50,[2],19 µM
Cc1cc(C)nc(N/C(N)=N/C[C@H](C)c2ccccc2)n1,Selectivity,[1],5.7
same,IC50,[2],35 µM
Cc1cc(C)nc(/N=C(\N)NCCc2cccc(Cl)c2)n1,Selectivity,[1],1.8
same,IC50,[2],12 µM
Cc1cc(C)nc(/N=C(\N)NCCc2ccc(O)cc2)n1,Selectivity,[1],3
same,IC50,[2],49 µM
Cc1cc(C)nc(/N=C(\N)NCCc2ccc(F)cc2)n1,Selectivity,[1],4.1
same,IC50,[2],23 µM
Cc1cc(C)nc(N(C)C(=N)NCCc2ccccc2)n1,IC50,[3],> 200 µM
same,IC50,[2],> 200 µM
COC(=O)c1ccc(CC/N=C(\N)Nc2nc(C)cc(C)n2)cc1,Selectivity,[1],3.4
same,IC50,[2],29 µM
Cc1cc(C)nc(/N=C(\S)NCCc2ccccc2)n1,IC50,[3],> 200 µM
same,IC50,[2],> 200 µM
Cc1cc(C)nc(/N=C(\N)NCCc2ccc(-c3ccccc3)cc2)n1,Selectivity,[1],>2.5
same,IC50,[2],80 µM
COc1ccc(CC/N=C(\N)Nc2nc(C)cc(C)n2)c(OC)c1,Selectivity,[1],2.6
same,IC50,[2],68 µM
COc1c(C)nc(/N=C(\N)NCCc2ccccc2)nc1C,Selectivity,[1],3.4
same,IC50,[2],9.9 µM
Cc1cc(C)nc(/N=C(\N)NCCc2ccc3ccccc3n2)n1,Selectivity,[1],3.7
same,IC50,[2],23 µM
Cc1cc(C)nc(/N=C(\N)NCCc2cccnc2)n1,Selectivity,[1],4
same,IC50,[2],32 µM
Cc1cc(C)nc(/N=C(\N)NC[C@@H](O)c2ccccc2)n1,Selectivity,[1],>2.2
same,IC50,[2],9.7 µM
Cc1cc(C)nc(/N=C(\N)NC[C@H](O)c2ccccc2)n1,Selectivity,[1],>2.7
same,IC50,[2],75 µM
Cc1cc(C)nc(/N=C(\N)NCCc2ccccn2)n1,Selectivity,[1],2.4
same,IC50,[2],39 µM
Cc1cc(C)nc(NC(=O)NCCc2ccccc2)n1,IC50,[3],> 200 µM
same,IC50,[2],> 200 µM
Cc1cc(C)nc(/N=C(\N)NCc2nc3ccccc3[nH]2)n1,Selectivity,[1],1.7
same,IC50,[2],23 µM
Cc1cc(C)nc(/N=C(\N)NCCc2ccc(OC(F)(F)F)cc2)n1,Selectivity,[1],>2.2
same,IC50,[2],92 µM
Cc1cc(C)nc(NC(=N)N(C)CCc2ccccc2)n1,IC50,[3],> 200 µM
same,IC50,[2],> 200 µM
